Assay results from US11453681B2, “Substituted eneoxindoles and uses thereof” (Gilead Sciences, Inc., priority 2019, dated 2022).

Target: human HPK1 (MAP4K1) (Homo sapiens (Human), UniProt Q92918)
Assay: HPK1 IC50 Assay
Type: biochemical
Details: recombinant HPK1 kinase domain 0.15 nM, synthetic peptide substrate STK S1, 3 hours at 25° C., time-resolved fluorescence energy transfer; geometric mean of multiple experiments
Procedure: The enzymatic activity of human HPK1 (MAP4K1) was monitored in a biochemical assay in the presence or absence of compounds and using a synthetic peptide substrate. An increase in phosphorylation of the peptide by HPK1 was indicative of its kinase activity.
Recombinant HPK1 kinase domain produced via baculovirus infection of insect cells was obtained from Proteros (Proteros Biostructures #PR-0322) and was pre-activated in the presence of 2 mM ATP (Sigma-Aldrich, cat #GE27-2056-01) and 2 mM magnesium chloride for 16 hours at 4° C. The protein reaction mixture was then loaded to a desalting column (Thermo Fisher Scientific, Cat #89889) to remove excess ATP. HPK1 was eluted with buffer containing 20 mM Tris (2-Amino-2-(hydroxymethyl)propane-1,3-diol) pH 8.0, 150 mM NaCl, 2 mM dithiothreitol and 5% glycerol, and was frozen at −80° C. for later use. HPK1 dual phosphorylation was confirmed by mass spectrometry.
Ten nanoliters of test compounds dissolved in DMSO at various concentrations were dispensed into a 384-well ProxiPlate (PerkinElmer #6008289). Five microliters of a solution of recombinant HPK1 diluted in HPK1 kinase assay buffer (50 mM BES [N,N-Bis(2-hydroxyethyl)-2-aminoethanesulfonic acid], pH 7.0; 10 mM magnesium chloride; 0.01% Triton X-100; 1 mM dithiothreitol; 0.01% bovine serum albumin; 0.1 mM sodium orthovanadate) was added to the compound-containing plate and was incubated for 15 minutes at 25° C. Five microliters of a mixture of ATP (Sigma-Aldrich #A6559) and peptide substrate STK Si (Cisbio #61ST1BLC) diluted in HPK1 kinase assay buffer was then added to start the reaction. Final concentrations were 0.15 nM for HPK1, […], and 1 […]. The reaction mixture was incubated at 25° C. for 3 hours and was stopped with the addition of 10 μl of an EDTA (Ethylenediaminetetraacetic acid)-containing detection buffer (Cisbio #62SDBRDF) supplemented with Europium cryptate-labeled anti-phospho-serine/threonine antibodies (Cisbio #62ST1PEJ) and XL665-labeled streptavidin (Cisbio #610SAXLG). The mixture was incubated for 16 hours at room temperature and peptide phosphorylation was measured by time-resolved fluorescence energy transfer (665 nm/620 nm) on an Envision plate reader (PerkinElmer).
Data in Table 1 were normalized based on positive (staurosporine) and negative (DMSO) controls. Least squares curve fittings were performed using a four-parameter variable slope nonlinear regression model. IC50 is defined as the concentration of compound required to inhibit 50% of maximum phosphorylation. IC50 values from multiple experiments were averaged by geometric mean and the standard deviation was calculated.

Chain of human HPK1 (MAP4K1) (Q92918 17-274): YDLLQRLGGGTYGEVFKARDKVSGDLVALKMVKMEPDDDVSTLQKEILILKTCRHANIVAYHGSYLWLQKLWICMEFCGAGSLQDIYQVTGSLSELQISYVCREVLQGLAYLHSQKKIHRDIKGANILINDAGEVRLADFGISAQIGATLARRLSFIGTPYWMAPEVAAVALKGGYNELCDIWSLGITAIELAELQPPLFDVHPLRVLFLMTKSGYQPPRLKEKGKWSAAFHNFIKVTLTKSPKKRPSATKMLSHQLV

Cc1c(-c2ccc3c(c2)/C(=C/c2cc4cnccc4[nH]2)C(=O)N3)ccc2c1NC(=O)CO2 [Compound C39, (Z)-6-(3-((1H-pyrrolo[3,2-c]pyridin-2-yl)methylene)-2-oxoindolin-5-yl)-5-methyl-2H-benzo[b][1,4]oxazin-3(4H)-one] was tested, and the IC50 was 7.03 nM.
For Cc1cc2c(cc1-c1cnc3c(c1C)NCCO3)/C(=C/c1cc3cnccc3[nH]1)C(=O)N2 [Compound C40, (Z)-3-((1H-pyrrolo[3,2-c]pyridin-2-yl)methylene)-6-methyl-5-(8-methyl-2,3-dihydro-1H-pyrido[2,3-b][1,4]oxazin-7-yl)indolin-2-one], the IC50 was 0.07 nM.
Cc1cc2c(cc1-c1cnc3c(c1)NCCO3)/C(=C/c1cc3cnccc3[nH]1)C(=O)N2 [Compound C41, (Z)-3-((1H-pyrrolo[3,2-c]pyridin-2-yl)methylene)-5-(2,3-dihydro-1H-pyrido[2,3-b][1,4]oxazin-7-yl)-6-methylindolin-2-one] showed an IC50 of 5.73 nM.
In the case of Cc1c(-c2cnc3c(c2)NCCO3)cc(F)c2c1/C(=C/c1cc3cnccc3[nH]1)C(=O)N2 [Compound C42, (Z)-3-((1H-pyrrolo[3,2-c]pyridin-2-yl)methylene)-5-(2,3-dihydro-1H-pyrido[2,3-b][1,4]oxazin-7-yl)-7-fluoro-4-methylindolin-2-one], the IC50 is reported as 9.3 nM.
Work on Cc1c(-c2cc3c(cc2F)NC(=O)/C3=C\c2cc3ccncc3[nH]2)cnc2c1NCCO2 [Compound C43, (Z)-3-((1H-pyrrolo[2,3-c]pyridin-2-yl)methylene)-6-fluoro-5-(8-methyl-2,3-dihydro-1H-pyrido[2,3-b][1,4]oxazin-7-yl)indolin-2-one] yielded an IC50 of 0.13 nM.
Cc1c(-c2cc3c(cc2F)NC(=O)/C3=C\c2cc3ncccc3[nH]2)cnc2c1NCCO2 [Compound C44, (Z)-3-((1H-pyrrolo[3,2-b]pyridin-2-yl)methylene)-6-fluoro-5-(8-methyl-2,3-dihydro-1H-pyrido[2,3-b][1,4]oxazin-7-yl)indolin-2-one] gave an IC50 of 0.05 nM.
Cc1c(-c2cc(F)c3c(c2)/C(=C/c2cc4ccncc4[nH]2)C(=O)N3)cnc2c1NCCO2 [Compound C45, (Z)-3-((1H-pyrrolo[2,3-c]pyridin-2-yl)methylene)-7-fluoro-5-(8-methyl-2,3-dihydro-1H-pyrido[2,3-b][1,4]oxazin-7-yl)indolin-2-one] gave an IC50 of 0.17 nM.
Cc1c(-c2cc(F)c3c(c2)/C(=C/c2cc4ncccc4[nH]2)C(=O)N3)cnc2c1NCCO2 [Compound C46, (Z)-3-((1H-pyrrolo[3,2-b]pyridin-2-yl)methylene)-7-fluoro-5-(8-methyl-2,3-dihydro-1H-pyrido[2,3-b][1,4]oxazin-7-yl)indolin-2-one] showed an IC50 of 0.05 nM.
For Cc1c(-c2cnc3c(c2)/C(=C/c2cc4cnccc4[nH]2)C(=O)N3)cnc2c1NCCO2 [Compound C47, (Z)-3-((1H-pyrrolo[3,2-c]pyridin-2-yl)methylene)-5-(8-methyl-2,3-dihydro-1H-pyrido[2,3-b][1,4]oxazin-7-yl)-1,3-dihydro-2H-pyrrolo[2,3-b]pyridin-2-one], the IC50 was 1.13 nM.
With Cc1c(-c2cc3c(cc2Cl)NC(=O)/C3=C\c2cc3cnccc3[nH]2)cnc2c1NCCO2 [Compound C48, (Z)-3-((1H-pyrrolo[3,2-c]pyridin-2-yl)methylene)-6-chloro-5-(8-methyl-2,3-dihydro-1H-pyrido[2,3-b][1,4]oxazin-7-yl)indolin-2-one] the IC50 was 0.16 nM.
Cc1c(-c2cc3c(cc2F)NC(=O)/C3=C\c2cc3cnccc3[nH]2)cnc2c1NCCO2 [Compound C49, (Z)-3-((1H-pyrrolo[3,2-c]pyridin-2-yl)methylene)-6-fluoro-5-(8-methyl-2,3-dihydro-1H-pyrido[2,3-b][1,4]oxazin-7-yl)indolin-2-one] was tested, and the IC50 was 0.16 nM.
With Cc1c(-c2cc3c(cc2Cl)NC(=O)/C3=C\c2cc3ccccc3[nH]2)cnc2c1NCCO2 [Compound C50, (Z)-3-((1H-indol-2-yl)methylene)-6-chloro-5-(8-methyl-2,3-dihydro-1H-pyrido[2,3-b][1,4]oxazin-7-yl)indolin-2-one] the IC50 was 0.19 nM.
In the case of Cc1c(-c2cc3c(cc2F)NC(=O)/C3=C\c2cc3ccccc3[nH]2)cnc2c1NCCO2 [Compound C51, (Z)-3-((1H-indol-2-yl)methylene)-6-fluoro-5-(8-methyl-2,3-dihydro-1H-pyrido[2,3-b][1,4]oxazin-7-yl)indolin-2-one], the IC50 is reported as 0.16 nM.
Cc1c(-c2cc(F)c3c(c2)/C(=C/c2cc4ccccc4[nH]2)C(=O)N3)cnc2c1NCCO2 [Compound C53, (Z)-3-((1H-indol-2-yl)methylene)-7-fluoro-5-(8-methyl-2,3-dihydro-1H-pyrido[2,3-b][1,4]oxazin-7-yl)indolin-2-one] gave an IC50 of 0.16 nM.
Molecule Cc1c(-c2cc(F)c3c(c2C)/C(=C/c2cc4cnccc4[nH]2)C(=O)N3)cnc2c1NCCO2 [Compound C54, (Z)-3-((1H-pyrrolo[3,2-c]pyridin-2-yl)methylene)-7-fluoro-4-methyl-5-(8-methyl-2,3-dihydro-1H-pyrido[2,3-b][1,4]oxazin-7-yl)indolin-2-one] has an IC50 of 0.27 nM.
Cc1c(-c2cnc3c(c2)/C(=C/c2cc4ccccc4[nH]2)C(=O)N3)cnc2c1NCCO2 [Compound C55, (Z)-3-((1H-indol-2-yl)methylene)-5-(8-methyl-2,3-dihydro-1H-pyrido[2,3-b][1,4]oxazin-7-yl)-1,3-dihydro-2H-pyrrolo[2,3-b]pyridin-2-one] gave an IC50 of 1.24 nM.
For Cc1c(-c2cc(F)c3c(c2C)/C(=C/c2cc4ccccc4[nH]2)C(=O)N3)cnc2c1NCCO2 [Compound C56, (Z)-3-((1H-indol-2-yl)methylene)-7-fluoro-4-methyl-5-(8-methyl-2,3-dihydro-1H-pyrido[2,3-b][1,4]oxazin-7-yl)indolin-2-one], the IC50 was 0.51 nM.
Molecule Cc1c(-c2ccc3c(c2)/C(=C/c2cc4ncccc4[nH]2)C(=O)N3)cnc2c1NCCO2 [Compound C57, (Z)-3-((1H-pyrrolo[3,2-b]pyridin-2-yl)methylene)-5-(8-methyl-2,3-dihydro-1H-pyrido[2,3-b][1,4]oxazin-7-yl)indolin-2-one] has an IC50 of 0.05 nM.
In the case of Cc1c(-c2ccc3c(c2)/C(=C/c2cc4ccncc4[nH]2)C(=O)N3)cnc2c1NCCO2 [Compound C58, (Z)-3-((1H-pyrrolo[2,3-c]pyridin-2-yl)methylene)-5-(8-methyl-2,3-dihydro-1H-pyrido[2,3-b][1,4]oxazin-7-yl)indolin-2-one], the IC50 is reported as 0.11 nM.
Cc1c(-c2ccc3c(c2)/C(=C/c2nc4ccccc4[nH]2)C(=O)N3)cnc2c1NCCO2 [Compound C59, (Z)-3-((1H-benzo[d]imidazol-2-yl)methylene)-5-(8-methyl-2,3-dihydro-1H-pyrido[2,3-b][1,4]oxazin-7-yl)indolin-2-one] gave an IC50 of 0.28 nM.
For Cc1c(-c2ccc3c(c2)/C(=C/c2cc4cnccc4[nH]2)C(=O)N3)cnc2c1NCCO2 [Compound C60, (Z)-3-((1H-pyrrolo[3,2-c]pyridin-2-yl)methylene)-5-(8-methyl-2,3-dihydro-1H-pyrido[2,3-b][1,4]oxazin-7-yl)indolin-2-one], the IC50 was 0.06 nM.
Molecule Cc1c(-c2ccc3c(c2)/C(=C/c2cc4cccnc4[nH]2)C(=O)N3)cnc2c1NCCO2 [Compound C61, (Z)-3-((1H-pyrrolo[2,3-b]pyridin-2-yl)methylene)-5-(8-methyl-2,3-dihydro-1H-pyrido[2,3-b][1,4]oxazin-7-yl)indolin-2-one] has an IC50 of 1.1 nM.
Work on Cc1c(-c2ccc3c(c2)/C(=C/c2cc4ccccc4[nH]2)C(=O)N3)cnc2c1NCCO2 [Compound C62, (Z)-3-((1H-indol-2-yl)methylene)-5-(8-methyl-2,3-dihydro-1H-pyrido[2,3-b][1,4]oxazin-7-yl)indolin-2-one] yielded an IC50 of 0.05 nM.
In the case of Cc1c(-c2cc(F)c3c(c2C)/C(=C/c2cc4ccncc4[nH]2)C(=O)N3)cnc2c1NCCO2 [Compound C63, (Z)-3-((1H-pyrrolo[2,3-c]pyridin-2-yl)methylene)-7-fluoro-4-methyl-5-(8-methyl-2,3-dihydro-1H-pyrido[2,3-b][1,4]oxazin-7-yl)indolin-2-one], the IC50 is reported as 0.41 nM.
Cc1c(-c2cc(F)c3c(c2C)/C(=C/c2cc4ncccc4[nH]2)C(=O)N3)cnc2c1NCCO2 [Compound C64, (Z)-3-((1H-pyrrolo[3,2-b]pyridin-2-yl)methylene)-7-fluoro-4-methyl-5-(8-methyl-2,3-dihydro-1H-pyrido[2,3-b][1,4]oxazin-7-yl)indolin-2-one] showed an IC50 of 0.31 nM.
